Measurements from patent US7214696B2, “Compositions and methods for stabilizing transthyretin and inhibiting transthyretin misfolding” (The Scripps Research Institute, priority 2002, dated 2007).
Where two headings read alike, the source gives them in different places.

Key:
[1] = biological target: T1, TTR in human blood plasma (Homo sapiens, UniProt P02766); assay: Immunoprecipitation/HPLC binding stoichiometry of PCBs and OH-PCBs in plasma, Example 4; set-up: from tissue; host or cells: human blood plasma from healthy volunteers; conditions: OH-PCB 10.8 μM in human blood plasma; post-wash lower limit
Procedure: After washing, the PCB or OH-PCB binding stoichiometry to TTR (≈5 μM) was evaluated by reverse phase HPLC.
A 2 mL eppendorf tube was filled with 1.5 mL of human blood plasma and 7.5 μL of a 2.16 mM DMSO solution of the PCB under evaluation. This solution was incubated at 37° C. for 24 h. A 1:1 resin/TSA slurry (187 μL) of quenched Sepharose was added to the solution and gently rocked at 4° C. for 1 h. The solution was centrifuged (16,000×g) and the supernatant divided into 3 aliquots of 400 μL each. These were each added to 200 μL of a 1:1 resin/TSA slurry of the anti-transthyretin antibody-conjugated Sepharose and slowly rocked at 4° C. for 20 min. The samples were centrifuged (16,000×g) and the supernatant removed. The resin was washed with 1 mL TSA/0.05% Saponin (Acros) (3×10 min) at 4° C., and additionally with 1 mL TSA (2×10 min) at 4° C. […]
The supernatant elution samples from the TTR antibody beads (145 μL) were loaded onto a Waters 71P autosampler. […] Detection was accomplished at 280 nm with a Waters 486 tunable absorbance detector, and the peaks were integrated to give the area of both TTR and the small molecule. In order to determine the quantity of each species, known amounts of tetrameric TTR or PCB were injected onto the HPLC. […] The ratio of small molecule to protein was calculated to yield the stoichiometry of small molecule bound to TTR in plasma.

[2] = biological target: T1, TTR in human blood plasma; format: binding; set-up: from tissue; host or cells: human blood plasma from healthy volunteers; conditions: test compound 10.8 μM, 24 h, 37° C.
Procedure: Human blood plasma (TTR conc. 3.6–5.4 μM) was incubated for 24 h with the test compound (10.8 μM) at 37° C. The TTR and any bound inhibitor were immunoprecipitated using a sepharose-bound polyclonal TTR antibody. The TTR with or without inhibitor bound was liberated from the resin at high pH, and the inhibitor:TTR stoichiometry was ascertained by HPLC analysis (FIG. 8).

[3] = biological target: TTR tetramer (Homo sapiens, UniProt P02766); assay: Tetramer dissociation in 6 M urea, Example 4; format: biochemical
Source text: In addition to their high binding selectivity to plasma TTR, the OH-PCBs and PCB 3 also display excellent inhibition of TTR fibril formation in vitro. […] This is likely attributable to their high binding affinity (also consistent with their low off rate) and their non- or positively cooperative TTR binding properties which are unusual. […] Ground state stabilization raises the tetramer dissociation barrier (rate limiting step in TTR amyloidogenesis) substantially, such that the tetramer cannot dissociate on a biologically relevant timescale. […] OH-PCB 18 (3.6 μM) is believed to be an impressive amyloid inhibitor because it is an excellent kinetic stabilizer of tetrameric TTR, i.e. it prevents ⅔ of a 3.6 μM TTR sample from being amyloidogenic at pH 4.4 because TTR•18 and TTR•182 are incompetent to form amyloid, the remainder of TTR (1.18 μM) forms amyloid very inefficiently because of its low concentration. The dissociation rates of the best OH-PCB inhibitors may also be slower than expected because of TTR structural annealing around the OH-PCB, but this has not yet been evaluated as carefully as required.

[4] = biological target: T2, WT TTR (Homo sapiens, UniProt P02766); assay: Transthyretin amyloid fibril formation assay (pH 4.4, 72 h, OD 400 nm), Example 4; format: biochemical; conditions: equimolar inhibitor and TTR concentration (3.6 μM)
Procedure: TTR secreted into blood from the liver appears to be the source of systemic TTR amyloid. While it is not yet clear where or how amyloid is formed in humans, the typical denaturant in cells is acid, which is effective in converting nearly all amyloidogenic peptides and proteins into amyloid and/or related aggregates. […] Hydroxylated PCBs and PCB 3 were highly efficacious as TTR fibril inhibitors. At an inhibitor concentration equal to the WT TTR concentration (3.6 μM), only 12–50% of the normal amount of fibril formation was observed after a 72 h incubation period.
The compounds were dissolved in DMSO at a concentration of 720 μM. Five μL of a solution of the compound being evaluated was added to 0.5 mL of a 7.2 μM TTR solution in 10 mM phosphate pH 7.6, 100 mM KCl, 1 mM EDTA buffer, allowing the compound to incubate with TTR for 30 min. 495 μL of […] acetate pH 4.2, 100 mM KCl, 1 mM EDTA was added, to yield final protein and inhibitor concentrations of 3.6 μM each and a pH of 4.4. The mixture was then incubated at 37° C. for 72 h, after which the tubes were vortexed for 3 sec and the optical density was measured at 400 nm. The extent of fibril formation was determined by normalizing each optical density by that of TTR without inhibitor, defined to be 100% fibril formation. Control solutions of each compound in the absence of TTR were also tested and none absorbed appreciably at 400 nm.

[5] = biological target: T3, TTR in whole blood (Homo sapiens, UniProt P02766); assay: Binding stoichiometry of OH-PCBs in whole blood, Example 4
T3 construct: Whole blood was drawn from healthy volunteers; from tissue; host or cells: human whole blood from healthy volunteers
Source text: Up to two PCBs can bind to the two identical thyroid hormone binding sites in a TTR tetramer. […] Several of the hydroxylated PCBs (e.g., 16 and 22) approach a binding stoichiometry of 2.

[6] = biological target: wt transthyretin tetramer (Homo sapiens, UniProt P02766); assay: TTR tetramer dissociation in 6 M urea, Example 5; conditions: TTR 1.8 μM, inhibitor 3.6 μM
Source text: An inhibitor's ability to do this is most rigorously tested by measuring its efficacy at slowing tetramer dissociation in 6 M urea, a severe denaturation stress. Thus, the rates of TTR tetramer dissociation in 6 M urea in the presence and absence of 20, 21 or 27 were compared (FIG. 9).

[7] = biological target: T4, serum TTR (Homo sapiens, UniProt P02766); assay: Serum TTR tetramer stability against urea or acid denaturation (glutaraldehyde cross-linking, immunoblot), Example 3; format: in vivo; conditions: whole serum of dosed subjects, urea (0–9 M) or acid (pH 3.8–5.4)
T4 construct: from tissue; host or cells: serum of healthy human volunteers dosed orally with diflunisal
Procedure: Serum TTR tetramer stability towards urea denaturation was evaluated. Ten μL samples of serum were incubated (25° C.) in 90 μL of various concentrations of urea in 50 mM phosphate buffer (pH 7.0; 100 mM KCl, 1 mM EDTA, 1 mM DTT). Urea solutions were checked by refractive index to verify the concentrations prepared by weight. Glutaraldehyde cross-linking of the protein was performed by adding 10 μL of glutaraldehyde (25%). The cross-linking reaction was allowed to proceed for 4 min before it was quenched by the addition of 10 μL of NaBH4 (7% in 0.1 M NaOH). The samples were mixed with 120 μL of SDS reducing gel loading cocktail (final SDS concentration=2.5%) and boiled for 5 min.
Serum TTR tetramer stability against acid denaturation was evaluated. Ten μL samples of serum were incubated (37° C.) in 90 μL of 100 mM acidification buffer. Citrate buffer was used when a final pH of ≦3.8 was desired; acetate buffer was employed when the pH range under evaluation was 4.2–5.4. After cross-linking, samples were analyzed by SDS-PAGE and immunoblotting as described above.
Whole serum from the subjects was subjected to denaturation either by adding urea (0–9 M) or by adding acid (pH 3.8–5.4). […] Immunoblotting enables quantitative comparisons of the amount of folded TTR.

[8] = biological target: T5, V122I TTR (Homo sapiens, UniProt P02766, V142I); assay: Acid-mediated amyloidogenesis of TTR variant V122I, Example 3; format: biochemical
T5 construct: made in house; host or cells: Escherichia coli BL21/DE3 Epicurian gold, pmmHα plasmid
Procedure: (§1) Recombinant WT TTR and variants were expressed in BL21/DE3 Epicurian gold Escherichia coli (Stratagene) transformed with the pmmHα plasmid containing the TTR and ampicillin-resistance genes. Expression and purification were performed as described previously (Lashuel et al., Biochemistry 1999; 38: 13560–73).
(§2) Fibril formation assay was carried out as follows. A recombinant TTR stock solution (7.2 μM) was diluted 1:1 with 100 mM acidification buffer. Citrate buffer was used when a final pH of ≦3.8 was desired; acetate buffer was employed when the pH range under evaluation was 4.2–6.0, and phosphate buffer was utilized for evaluating amyloidogenesis at pH 6.5. Samples were incubated at 37° C. for 72 h without stirring after acidification. The extent of fibril formation was probed by turbidity measurements at […].
(§3) More than 80 TTR mutations predispose individuals to hereditary amyloidosis by sequence dependent alterations of the denaturation energy landscape.

[9] = biological target: TTR in human serum (Homo sapiens, UniProt P02766); conditions: diflunisal 100 μM in serum
Procedure: A 1:1 gel/10 mM Tris.HCl, pH 8.0/140 mM NaCl/0.025% NaN3(TSA) slurry (62.5 μL) of Sepharose was added to 500 μL of serum and incubated at 4° C. for 1 h. Following centrifugation, 400 μL of supernatant was added to 200 μL of a 1:1 gel/TSA slurry of the anti-TTR antibody-conjugated Sepharose and slowly rocked at 4° C. for 20 min. After centrifugation, the gel was washed with 1 mL of TSA/0.05% saponin (Fisher Scientific) (twice, 10 min each), and additionally with 1 mL of TSA (once, 10 min) at 4° C. […] After gentle rocking at 4° C. for 30 min, the sample was centrifuged and 145 μL of the supernatant was removed.

[10] = biological target: T6, V30M TTR (Homo sapiens, UniProt P02766, V50M); assay: Acid-mediated amyloidogenesis of TTR variant V30M, Example 3; format: biochemical
T6 construct: made in house; host or cells: Escherichia coli BL21/DE3 Epicurian gold, pmmHα plasmid
Procedure: as §1, §2, §3

[11] = biological target: T7, TTR (Homo sapiens, UniProt P02766); assay: Rate of urea-mediated (6.5 M) TTR tetramer dissociation by CD, Example 3; format: biochemical; set-up: made in house; host or cells: Escherichia coli BL21/DE3 Epicurian gold, pmmHα plasmid; conditions: 6.5 M urea; diflunisal 5, 10, 20 and 60 μM
Procedure: Rate of TTR tetramer dissociation was measured by circular dichroism spectroscopy. The evaluation of tetramer dissociation rates was carried out using recombinant TTR (3.6 μM) samples in 6.5 M urea, a concentration in the post-transition region for tertiary structural change (Hammarstrom et al., Proc Natl Acad Sci USA 2002; 99: 16427–32). The far-UV CD spectra of TTR (210–220 nm) as a function of time was measured to evaluate the slow tetramer dissociation rate by linking it to fast tertiary structural changes.

[12] = cited from earlier work
[13] = biological target: T7, TTR; assay: Rate of acid-mediated (pH 4.4) amyloid fibril formation, Example 3; format: biochemical; set-up: made in house; host or cells: Escherichia coli BL21/DE3 Epicurian gold, pmmHα plasmid; conditions: diflunisal 5, 10, 20 and 60 μM
Procedure: as §2

[14] = biological target: T2, WT TTR; assay: Stagnant acid-mediated fibril formation assay (turbidity, pH 4.4, 72 h), Example 2; conditions: 3.6 TM TTR, 37° C.
Procedure: Each compound was subjected to a stagnant fibril formation assay. […] The mixture was vortexed and incubated for 30 min (25° C.), at which time the pH was lowered to 4.4 with 500 TL of 200 mM acetate, 100 mM KCl and 1 mM EDTA (pH 4.2). The final 1 mL solution was vortexed and incubated for 72 h at 37° C. without agitation. After 72 h, the cuvettes were vortexed to suspend any fibrils present, and the turbidity of the suspension was measured at 350 and 400 nm using a UV-vis spectrometer. […] All assays were performed in triplicate and all compounds were assayed using wild-type TTR.
After incubation of each mixture for 72 h (37° C.), the turbidity was measured at 350 and 400 nm using a UV-vis spectrometer. All amyloid fibril formation data was normalized to WT TTR amyloidogenesis in the absence of inhibitor, assigned to be 100% fibril formation.

[15] = Serum diflunisal levels in healthy volunteers (HPLC), Example 3; format: in vivo; conditions: both sexes, human, oral
Procedure: (§4) Thirty healthy volunteers (25 male, 5 female) were enrolled after informed consent was given. The subjects ranged from 23 to 53 years of age (mean age, 37.6±8.8) with a mean body weight of 78.0±12.1 kg. […] This study design was approved by the Human Subjects Committee of Scripps Clinic, Scripps Green Hospital, The Scripps Research Institute, and The Scripps General Clinical Research Center.
Serum diflunisal levels were measured. One hundred μL of serum was added to 900 μL of acetonitrile to precipitate the proteins. Following centrifugation, 100 μL of supernatant was added to 900 μL of 100 mM aqueous triethylamine, pH 11.5. After filtration, 100 μL of each sample was injected on a Keystone 3-cm C18 reverse-phase column using a 40–100% gradient of solution B over 10 min (solution A: 94.8% water/5% acetonitrile/0.2% trifluoroacetic acid; solution B: 94.8% acetonitrile/5% water/0.2% trifluoroacetic acid), controlled by a Waters 600E multisolvent delivery system.

[16] = Serum chemistry and side effects in healthy volunteers given diflunisal, Example 3; format: in vivo, human
Source text: as §4

3′,5′-Difluorobiphenyl-4-carboxylic acid [Compound 18]
Equivalents Bound (Plasma) [1]: 1.36 ± 0.21 | inhibitor:TTR binding stoichiometry in human blood plasma [2]: displayed the highest binding stoichiometries | tetramer dissociation in 6 M urea [3]: dramatically slowed tetramer dissociation in 6 M urea | efficacy as fibril inhibitor [4]: among the highest observed to date

O=C(O)c1ccc2nc(-c3ccccc3)oc2c1 [Compound 21]
Equivalents Bound (Blood) [5]: 1.33 | Equivalents Bound (Plasma) [1]: 1.40 ± 0.22 | effect on dissociation of TTR [6]: did not hinder the dissociation of TTR at all

O=C(O)c1cc(-c2ccc(F)cc2F)ccc1O [diflunisal]
stability of serum TTR against denaturation [7]: stabilizes serum TTR against denaturation stresses | inhibition of V122I amyloidogenesis [8]: inhibits both V122I and V30M amyloidogenesis in a dose dependent fashion | binding stoichiometry in subjects [9]: 0.8–1 | inhibition of V30M amyloidogenesis [10]: inhibits both V122I and V30M amyloidogenesis in a dose dependent fashion | rate of urea-mediated dissociation [11]: dose dependent slowing | diflunisal concentration in blood ([12]; 4 h after a single 500 mg dose): > 300 µM | diflunisal concentration in blood ([12]; 20 h after a single 500 mg dose): exceed 30 μM | blood-brain barrier penetration ([12]; in vivo): cannot cross the blood-brain barrier | half-life ([12]; in vivo): 8 to 10 h | sustained plasma concentration ([12]; orally administered, 250 mg twice daily): exceeding 100 TM | protein bound ([12]; serum): Greater than 99% | rate of acid mediated amyloid fibril formation [13]: dose dependent slowing | reduction of TTR amyloidogenesis ([14]; 3.6 TM diflunisal): 63% | reduction of TTR amyloidogenesis ([14]; 7.2 TM diflunisal): 97% | concentration at 4 h after the 13th dose (day 8) ([15]; 125 mg twice a day, 125 mg bid): 20.1 ± 7.1 µM | concentration at 12 h after the 13th dose (day 8) ([15]; 125 mg twice a day, 125 mg bid): 6.9 ± 3 µM | concentration at 4 h after the 13th dose (day 8) ([15]; 250 mg twice a day, 250 mg bid): 234 ± 76 µM | concentration at 12 h after the 13th dose (day 8) ([15]; 250 mg twice a day, 250 mg bid): 146 ± 38.9 µM | concentration at 4 h after the 13th dose (day 8) ([15]; 500 mg twice a day, 500 mg bid): 517 ± 79.5 µM | concentration at 12 h after the 13th dose (day 8) ([15]; 500 mg twice a day, 500 mg bid): 422 ± 78.1 µM | level of BUN ([16]; 250 mg bid group): increased slightly | serum level of albumin ([16]; 250 mg bid group): decreased moderately | level of BUN ([16]; 500 mg bid group): increased slightly | level of creatinine ([16]; 500 mg bid group): increased slightly | serum level of albumin ([16]; 500 mg bid group): decreased significantly | side effects ([16]; 125, 250 or 500 mg bid for 7 days, during or after the study): No obvious side effects were observed
